Laboratory results: PubChem BioAssay AID1963982 (Molecular Pharmacology Branch, DTP, NCI, 2024)

Test system: 313798-341-R-J2-PDC spheroids, viability
Assay: Anticancer human tumor 313798-341-R-J2-PDC patient-derived cervical squamous cell carcinoma cell line growth inhibition [PI3K]
Settings: spheroids with HUVEC and MSC; for IC50: curve of first compound; for viability, T/C: stronger effect = lower value
Summary of the method: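 Stroma-containing spheroids: tumor line, pooled-donor HUVEC, hMSC. Treatments: targeted agents with PI3K inhibitors. Dosing: clinically relevant, half-log spacing, 10 microM ceiling without known Cmax. Read-out: cell viability.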

[1] = second compound 0.0316 µM, first compound 0.0316 µM
[2] = second compound 0.0316 µM, first compound 0.1 µM
[3] = second compound 0.0316 µM, first compound 0.316 µM
[4] = second compound 0.0316 µM, first compound 1 µM
[5] = second compound 0.0316 µM, first compound 3.16 µM
[6] = second compound 0.0316 µM, first compound 10 µM
[7] = second compound 0.1 µM, first compound 0.0316 µM
[8] = second compound 0.1 µM, first compound 0.1 µM
[9] = second compound 0.1 µM, first compound 0.316 µM
[10] = second compound 0.1 µM, first compound 1 µM
[11] = second compound 0.1 µM, first compound 3.16 µM
[12] = second compound 0.1 µM, first compound 10 µM
[13] = second compound 0.316 µM, first compound 0.0316 µM
[14] = second compound 0.316 µM, first compound 0.1 µM
[15] = second compound 0.316 µM, first compound 0.316 µM
[16] = second compound 0.316 µM, first compound 1 µM
[17] = second compound 0.316 µM, first compound 3.16 µM
[18] = second compound 0.316 µM, first compound 10 µM
[19] = second compound 1 µM, first compound 0.0316 µM
[20] = second compound 1 µM, first compound 0.1 µM
[21] = second compound 1 µM, first compound 0.316 µM
[22] = second compound 1 µM, first compound 1 µM
[23] = second compound 1 µM, first compound 3.16 µM
[24] = second compound 1 µM, first compound 10 µM
[25] = second compound 3.16 µM, first compound 0.0316 µM
[26] = second compound 3.16 µM, first compound 0.1 µM
[27] = second compound 3.16 µM, first compound 0.316 µM
[28] = second compound 3.16 µM, first compound 1 µM
[29] = second compound 3.16 µM, first compound 3.16 µM
[30] = second compound 3.16 µM, first compound 10 µM
[31] = second compound 10 µM, first compound 0.0316 µM
[32] = second compound 10 µM, first compound 0.1 µM
[33] = second compound 10 µM, first compound 0.316 µM
[34] = second compound 10 µM, first compound 1 µM
[35] = second compound 10 µM, first compound 3.16 µM
[36] = second compound 10 µM, first compound 10 µM
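Further: spheroids exposed to compounds for seven days.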
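Wherever viability, T/C is given: 100% = DMSO vehicle control viability.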

SMILES: CNC(=O)c1ccc(N2C(=S)N(c3ccc(C#N)c(C(F)(F)F)c3)C(=O)C2(C)C)cc1F + CC(Nc1ncnc2nc[nH]c12)c1cc2cccc(Cl)c2c(=O)n1-c1ccccc1
- IC50 (second compound 0.0316 µM): > 10 µM
- IC50 (second compound 0.1 µM): > 10 µM
- IC50 (second compound 0.316 µM): > 10 µM
- IC50 (second compound 1 µM): > 10 µM
- IC50 (second compound 3.16 µM): > 10 µM
- IC50 (second compound 10 µM): > 10 µM
- viability, T/C [1]: 104%
- viability, T/C [2]: 110%
- viability, T/C [3]: 100%
- viability, T/C [4]: 92.4%
- viability, T/C [5]: 121%
- viability, T/C [6]: 98.8%
- viability, T/C [7]: 102%
- viability, T/C [8]: 101%
- viability, T/C [9]: 112%
- viability, T/C [10]: 99.4%
- viability, T/C [11]: 106%
- viability, T/C [12]: 101%
- viability, T/C [13]: 94.8%
- viability, T/C [14]: 98.3%
- viability, T/C [15]: 92.6%
- viability, T/C [16]: 98.8%
- viability, T/C [17]: 98.3%
- viability, T/C [18]: 96.5%
- viability, T/C [19]: 95%
- viability, T/C [20]: 96.5%
- viability, T/C [21]: 97.8%
- viability, T/C [22]: 109%
- viability, T/C [23]: 100%
- viability, T/C [24]: 93.2%
- viability, T/C [25]: 111%
- viability, T/C [26]: 101%
- viability, T/C [27]: 92.9%
- viability, T/C [28]: 93.9%
- viability, T/C [29]: 97.1%
- viability, T/C [30]: 84.8%
- viability, T/C [31]: 82.8%
- viability, T/C [32]: 86.1%
- viability, T/C [33]: 85.5%
- viability, T/C [34]: 85.6%
- viability, T/C [35]: 88.4%
- viability, T/C [36]: 73.2%

SMILES: CC1(C)CCC(CN2CCN(c3ccc(C(=O)NS(=O)(=O)c4ccc(NCC5CCOCC5)c([N+](=O)[O-])c4)c(Oc4cnc5[nH]ccc5c4)c3)CC2)=C(c2ccc(Cl)cc2)C1
- viability, T/C (compound 0.0316 µM): 101% [middle of 4 runs]
- viability, T/C (compound 0.1 µM): 97.8% [middle of 4 runs]
- viability, T/C (compound 0.316 µM): 101% [middle of 4 runs]
- viability, T/C (compound 1 µM): 94.4% [middle of 4 runs]
- viability, T/C (compound 3.16 µM): 78.9% [middle of 4 runs]

SMILES: CC(Cn1ccc(-c2ccc(C#N)c(Cl)c2)n1)NC(=O)c1cc(C(C)O)[nH]n1 (centres undefined) + Cc1nc(NC(=O)N2CCCC2C(N)=O)sc1-c1ccnc(C(C)(C)C(F)(F)F)c1
- IC50 (second compound 0.0316 µM): > 10 µM
- IC50 (second compound 0.1 µM): > 10 µM
- IC50 (second compound 0.316 µM): > 10 µM
- IC50 (second compound 1 µM): > 10 µM
- IC50 (second compound 3.16 µM): > 10 µM
- IC50 (second compound 10 µM): < 0.0316 µM
- viability, T/C [1]: 103%
- viability, T/C [2]: 93.9%
- viability, T/C [3]: 97.6%
- viability, T/C [4]: 99.9%
- viability, T/C [5]: 111%
- viability, T/C [6]: 92.1%
- viability, T/C [7]: 114%
- viability, T/C [8]: 109%
- viability, T/C [9]: 103%
- viability, T/C [10]: 113%
- viability, T/C [11]: 114%
- viability, T/C [12]: 103%
- viability, T/C [13]: 114%
- viability, T/C [14]: 104%
- viability, T/C [15]: 118%
- viability, T/C [16]: 114%
- viability, T/C [17]: 108%
- viability, T/C [18]: 98.4%
- viability, T/C [19]: 96.7%
- viability, T/C [20]: 93.6%
- viability, T/C [21]: 94.8%
- viability, T/C [22]: 85.2%
- viability, T/C [23]: 97.6%
- viability, T/C [24]: 84.1%
- viability, T/C [25]: 67.5%
- viability, T/C [26]: 57.3%
- viability, T/C [27]: 66.1%
- viability, T/C [28]: 61.7%
- viability, T/C [29]: 59.1%
- viability, T/C [30]: 52.5%
- viability, T/C [31]: 37.2%
- viability, T/C [32]: 33.2%
- viability, T/C [33]: 39.3%
- viability, T/C [34]: 36.3%
- viability, T/C [35]: 37.4%
- viability, T/C [36]: 30.9%
